How the values were obtained:
mTORC2 [1] = target: T1, mTORC2 (Homo sapiens, UniProt P42345); assay: In vitro mTORC2 kinase assay (GST-Akt Ser473 phosphorylation, immunoblot); format: biochemical; parameters: mTORC was isolated by co-immunoprecipitation using Flag antibody; made in house; host or cells: HEK 293T transfected with Flag-mLST8; conditions: assay validation with dual mTOR inhibitor
Procedure: After introducing Flag-mLST8 into a human cell line 293T, mTORC was isolated by co-immunoprecipitation using Flag antibody. In the in vitro mTORC2 kinase assay, the activity of the isolated mTORC2 was evaluated by measuring phosphorylation of GST-Akt Ser473, which is a selective substrate of mTORC2 by immunoblot analysis. In the control group in which Flag-mLST8 was not introduced, GST-Akt Ser473 phosphorylation was almost not measured. […] Therefore, it was judged that GST-Akt Ser473 phosphorylation measured in the in vitro mTORC2 kinase assay was generated by mTORC2. In order to evaluate the inhibitory effect of norathyriol and athyriol on mTORC2 activity, norathyriol or athyriol was pretreated for 15 minutes, and then in vitro mTORC2 kinase assay was carried out.
More specifically, the HEK 293T cells were cultured in a DMEM culture medium in which 10% heat inactivated FBS+1× Glutamax was added. 8×10^5 HEK 293T cells were seeded in a 100 mm culture dish, and then they were cultured for 1 day. After mixing 42 μl Lipofectamine, 21 μl plus reagent, and 21 μg Flag-mLST8 plasmid DNA to 1 ml OPTI-MEM, it was shaken at a room temperature for 25 minutes to prepare a transfection DNA mixture. The transfection DNA mixture was slowly treated on the cells drop by drop, and after culturing for 5 hours, the culture medium was replaced with a new culture medium. After additional culturing for 48 hours, the cells were […] with CHAPS buffer (50 mM HEPES (pH7.4), 100 mM NaCl, 2 mM EDTA, 0.3% CHAPS, 10 mM sodium pyrophosphate, 10 mM sodium β-glycerophosphate, 1 mM PMSF, 1 μg/ml leupeptin, 1 μg/ml pepstatin A, 10 nM aprotinin, 1 mM Na3VO4, 10 nM calyculin A), and centrifuged at 4° C. at 13,000 rpm for 10 minutes to obtain the supernatant and acquire cell lysate. The protein concentration of the cell lysate was determined with BCA protein assay kit (Thermo Fisher Scientific). After adding anti-Flag M2 affinity gel (50% slurry, Sigma) of 30 μl to the cell lysate of 1 mg, it was shaken at 4° C. for 3 hours. After that, affinity gel was washed with CHAPS buffer 3 times and kinase buffer (50 mM HEPES (pH7.5), 2 mM DTT, 10 mM MnCl2, 10 mM MgCl2) for washing once. After adding kinase buffer [-substrate-ATP] […] After that, kinase buffer (50 mM HEPES (pH7.5), 2 mM DTT, 10 mM MgCl2, 10 mM MnCl2, 1 mM ATP, 500 ng GST-AKT, 10 nM calyculin A) of 10 μl was added and shaken at 30° C. for 45 minutes to progress a kinase reaction. […] Ser473 phosphorylation of GST-AKT, which is a substrate of mTORC2, was measured by performing immunoblot analysis using AKT antibody (#4691, Cell signaling) and phospho Ser473 AKT antibody (#4060, Cell signalig). In order to measure the mTORC2 activity inhibitory effect by the compound, both the kinase buffer [-substrate-ATP] and the kinase buffer included the compound.

mTORC1 = target: T2, mTORC1 (Homo sapiens, UniProt P42345); assay: In vitro mTORC1 kinase assay (GST-S6K Thr389 phosphorylation, immunoblot); format: biochemical; conditions: assay validation with dual mTOR inhibitor
T2 construct: mTORC1 was isolated by co-immunoprecipitation using Flag antibody; made in house; host or cells: HEK 293T transfected with Flag-Raptor
Procedure: In order to investigate the effect on mTORC1 activity of norathyriol, in vitro mTORC1 kinase assay was performed. After introducing Flag-Raptor into a human cell line 293T, mTORC1 was isolated by co-immunoprecipitation using Flag antibody. In addition, the activity of the isolated mTORC1 complex was evaluated by measuring phosphorylation of GST-S6K Thr389, which is a selective substrate of mTORC1, by immunoblot analysis. In the control group in which Flag-Raptor was not introduced, GST-S6K Thr389 phosphorylation was almost not measured. […] Therefore, it was judged that GST-S6K Thr389 phosphorylation measured in the in vitro mTORC1 kinase assay was generated by mTORC1. In order to evaluate the inhibitory effect of norathyriol on mTORC1 activity, norathyriol was pretreated for 15 minutes, and then in vitro mTORC1 kinase assay was carried out.
More specifically, the HEK 293T cells were cultured in a DMEM culture medium in which 10% heat inactivated FBS+1× Glutamax was added. 8×10^5 HEK 293T cells were seeded in a 100 mm culture dish, and then they were cultured for 1 day. After mixing 42 μl Lipofectamine, 21 μl plus reagent, and 21 μg Flag-Raptor plasmid DNA to 1 ml OPTI-MEM, it was shaken at a room temperature for 25 minutes to prepare a transfection DNA mixture. The transfection DNA mixture was slowly treated on the cells drop by drop, and after culturing for 5 hours, the culture medium was replaced with a new culture medium. […] The protein concentration of the cell lysate was determined with BCA protein assay kit (Thermo Fisher Scientific). […] Thr389 phosphorylation of GST-S6K1, which is a substrate of mTORC1, was measured by performing immunoblot analysis using phospho Thr389 p70 S6 kinase antibody (#9205S, Cell Signaling) and GST antibody (#A190-122A, Bethyl Laboratories). […]

mTORC2 [2] = target: T1, mTORC2; assay: LocaTOR2 assay in A549 cells (FRB-AKT2 Ser473 phosphorylation); format: cell-based; parameters: endogenous in cells; host or cells: A549 (transfected only with the FKBP-recruiter and the FRB-AKT2 reporter); conditions: A549, KRas4B^C30-FKBP recruiter, AP21967; norathyriol at 30 μM and 60 μM; FIG. 9a
Text: mTORC2 is located in the cell membrane, endosome, ER and mitochondrial membrane. mTORC2 forms an mTORC2 complex as an activated form of ras (ras-GTP) operates as a scaffold in the cell membrane, whereas it forms an mTORC2 complex as mLST8 operates as a scaffold in the endosome. By this difference, the mTORC2 inhibitory effect of norathyriol may be shown differently depending on the subcellular compartment where mTORC2 is located. In order to investigate the mTORC2 inhibitory effect of norathyriol depending on the subcellular compartment location, in vivo LocaTOR2 assay was performed (Ebner et al. (2017) J. Cell Biol. 216:343-353). After introducing FKBP-recruiter selectively located in the membrane of the subcellular compartment and FRB^T2098L-AKT2 which is an mTORC2 substrate, AP21967 was treated for 40 minutes to induce binding between the FKBP-recruiter and FRB-AKT2, and FRB-AKT2 was moved to a specific subcellular compartment. In addition, the degree of phosphorylation of Ser473 of FRB-Akt by mTORC2 located in the site thereof was investigated by immunoblot analysis.

Arc protein expression = assay: mGluR-dependent Arc protein expression in cerebral neurons; format: cell-based; conditions: DHPG alone; FIG. 12a
Procedure: When mGluR is activated in dendritic spines of cerebral neurons, Arc protein is synthesized, and the Arc protein promotes endocytosis of an AMPA receptor to form LTD.
Specifically, DHPG was treated to cerebral neurons, which were obtained by primary culture of white mouse embryo E16 cerebral regions and differentiated for […] (DIV21), for 5 minutes or 10 minutes to activate mGluR. As an Arc antibody, Arc protein (green) and PSD95 (red), which is a marker antibody of postsynaptic density of a synapse, were under
After double immunofluorescent staining of Arc protein with an Arc antidody (green) and PSD95, a marker of postsynaptic density of synapse, with an PSD95 antibody (red), Arc expression in dendritic spines was quantified as the number of Arc+PSD95 double stained puncta per 20 μm neurite length by confocal scanning microscopic scanning.

[3] = target: T3, mTORC2 located in late endosome of dendritic spines (Rattus norvegicus, UniProt P42346); assay: LocaTOR2 assay-immunofluorescent staining in primary cultured cerebral neurons (mGluR-dependent mTORC2 activation); format: cell-based; conditions: FIG. 11a
T3 construct: endogenous in cells; host or cells: primary cultured cerebral neurons from SD-rat E16 embryos, transduced by lentivirus only with mCherry-FRB-AKT2 and Rab7-FKBP
Text: By combining Loca-TOR2 assay and immunofluorescence staining, changes in mTORC2 activity located in the late endosome during the induction process of long term depression (LTD) occurring in dendritic spines of primarily cultured cerebral neurons were investigated, and the inhibitory effect of norathyriol on these changes was investigated.
Specifically, mCherry-FRB-AKT2 and Rab7-FKBP were introduced using a lentiviral vector on the primarily cultured cerebral neuron on the DIV5 day, and AP21967 was treated on the DIV17 day to induce binding of FRB and FKBP, and thereby, mCherry-FRB-AKT2 was located in the late endosome. After that, DHPG, which is an mGluR agonist inducing long-term depression, was treated. […] In addition, by measuring Ser473 phosphorylation staining of mCherry-FRB-AKT2 overlapped with PSD-95 staining, which is a protein located in dendritic spines, by immunofluorescent staining, changes in mTORC2 activity located in the late endosome in the dendritic spines can be investigated. After staining using a phospho-Ser473 AKT antibody by immunofluorescent staining, the degree of AKT Ser473 phosphorylation was quantified by counting the number of each fluorescent puncta larger than 0.4 μm or more in size in the dendrites (green). In addition, the dendritic spines were observed by staining with PSD95 antibody (yellow), and the location of mCherry-FRB-AKT2 was investigated by observing mCherry fluorescence (cherry color).
SD-rat gestational age 16-day mice (Orient Bio) were purchased and the mice were anesthetized with CO2 and then embryos were taken out. Until the forebrain was isolated and the meninges were removed, it was performed by the same method as the hippocampal culture, and when the cerebrum was isolated, the dorsal cortex or ventral cortex was cut with a bended syringe needle, and it was collected in new HBSS. The tissue isolated and collected was transferred to a 15 ml tube with a Pasteur pipette, and then in order to remove the remaining meninges and blood vessels, and the like, 2 ml HBSS and 0.25% trypsin of 2 ml were added, and it was reacted in a 37° C. shaker for 10-15 minutes. The cells were settled and the supernatant was removed leaving 1-2 ml, and then trypsin was inactivated by adding DMEM comprising the equal amount of 20% FBS. After centrifugation at 700 rpm for 15 minutes, the supernatant was discarded all and the collected tissue was released, and then Neurobasal culture medium (+glutamate) of 2 ml was added, and titrated with a pipette, and the cells were isolated by changing to a pipette with a narrow end. […] The number of cells was measured with a hemocytometer, and then the cells were seeded in a coated culture dish. […]

SMILES | GST-Akt Ser473 phosphorylation (mTORC2 [1]) | GST-S6K Thr389 phosphorylation (mTORC1) | FRB-AKT2 Ser473 phosphorylation, mTORC2 located in cell membrane (mTORC2 [2]) | Arc synthesis in dendritic spines (immunofluorescent staining) (Arc protein expression) | increase of Ser473 phosphorylation of mCherry-FRB-AKT2 located in late endosome of dendritic spines ([3]; after 5 minutes of treating DHPG) [%] | increase of Ser473 phosphorylation of mCherry-FRB-AKT2 located in late endosome of dendritic spines ([3]; after 10 minutes of treating DHPG) [%] | Ser473 phosphorylation of mCherry-FRB-AKT2 located in late endosome of dendritic spines ([3]; after 20 minutes of treating DHPG)
COc1ccc(-c2ccc3c(N4CCOC[C@@H]4C)nc(N4CCOC[C@@H]4C)nc3n2)cc1CO [AZD8055, reference compound] | mostly reduced | mostly reduced | reduced the phosphorylation of FRB-AKT2 Ser473 to a level of the control group |  |  |  | 
NC(C(=O)O)c1cc(O)cc(O)c1 (stereo not shown) [DHPG, 3,5-dihydroxyphenylglycine] |  |  |  | increased up to 10 minutes after treating DHPG | 55 | 72 | reduced to the level of the control group
